In this experiment the test system is Mycobacterium tuberculosis. In words: Antimycobacterial activity against Mycobacterium tuberculosis H37Rv ATCC 27294 at 6.25 uM by microplate alamar blue assay. Format: functional. For orientation: The colour change of resazurin is a common sign of viable cells or microbes.

Usually inhibition stands for the drop in the measured response relative to a control, in per cent. Higher therefore signals a strong effect. Take `CC1(C)CCC[C@]2(C)[C@H]3C[C@@H](O)[C@]4(C)[C@H]5COC(=O)C5=CC[C@H]4[C@]3(C)CC[C@@H]12`: at 6.25 µM the inhibition was 16%.

For the compound `CC(=O)O[C@H]1C[C@H]2[C@]3(C)CC[C@H]4C(C)(C)CCC[C@]4(C)[C@H]3C[C@@H](O)[C@]2(C)[C@H]2OC(=O)C=C12`, 6.25 µM produced 40% inhibition.

The compound `CC(=O)O[C@H]1CC[C@]2(C)[C@H]3C[C@@H](O)[C@]4(C)C5=C(CC[C@H]4[C@]3(C)CC[C@H]2C1(C)C)COC5=O` gave an inhibition at 6.25 µM of 13%.

`CC(=O)O[C@H]1C[C@H]2[C@]3(C)CC[C@H]4C(C)(C)CCC[C@]4(C)[C@H]3C[C@@H](O)[C@]2(C)C2=C1COC2=O` [SESTERSTATIN 7] yielded an inhibition at 6.25 µM of 63%.

Source of the values: ChEMBL document CHEMBL1151284, “Antimycobacterial scalarane-based sesterterpenes from the Red Sea sponge Hyrtios erecta” (2005).
